Laboratory results as given in patent publication EP0442757A2, “Therapeutic nucleosides” (THE WELLCOME FOUNDATION LIMITED, priority 1990, dated 1991).

Experiments:
Format in all cases: cell-based
[1] = system: HIV-1; assay: Antiviral MT4 assay (reversal of HIV cytopathic effect, MTT uptake); conditions: MTT uptake at fifth day post infection, several values per cell, read-out: IC50 vs HIV-1 (μM) MT-4 (converted)
Method: Antiviral activity against the Human Immunodeficiency Virus (HIV) was determined according to the method of Pauwels et al, J.Virol.Methods, 1988 20 309-321 by measuring the ability of the compound to reverse the cytopathic effect of HIV infection. This was determined by a quantitative assessment of cell growth monitored at the fifth day post infection by a tetrazolium dye (MTT) uptake test. Subconfluent (20-40,000 cells/well) human T lymphocyte cell line MT4 cells infected with HIV were grown in 96-well microtiter dishes and exposed to different dilutions of drug. After 5 days, the dye intake test was performed on drug treated cultures and on HIV infected and mock infected MT4 cells. Under the conditions of the test, HIV infection caused extensive cytopathic effect and prevented cell growth by >80%. The antiviral effect of a drug is reported as an IC-50, i.e. as the inhibitory concentration that would protect 50% of the cells from cell killing, measured as 50% of that cell growth determined for uninfected MT4 cell controls.

[2] = system: HIV-1; assay: PBL assay (P24 capsid antigen ELISA in human peripheral blood lymphocytes); conditions: human PBL's stimulated with IL2 and PHA, P24 ELISA after 4 days incubation at 37°C, several values per cell
Method: HIV assays were carried out in human peripheral blood lymphocytes (PBL's) prepared by fractionation of fresh human […] on Ficoll gradients as described by Hartmann H. et al. Aids Research and Human Retroviruses, 1988, 4 457-466. The isolated PBL's were stimulated with growth factors IL2 and PHA for 3 days before infection with HIV. Growth of virus was monitored, after 4 days incubation at 37°C, by quantitative ELISA assays of the capsid antigen, P24. A range of concentrations of compound of known molarity was incorporated into the medium. Yield of P24 at each concentration are expressed as a percentage of the control and a dose response curve is drawn. From this curve the 50% inhibitory concentration (IC50) is estimated.

[3] = system: HIV-1; assay: HeLa-CD4+ cell assay (plaque reduction in HT4-6C cell monolayers); conditions: Human immunodeficiency virus 1, plaque reduction after 2-3 days, method calls the value ID50
Method: Susceptibility of HIV to inhibitors was determined by infection of HT4-6C cell monolayers as described by Larder, B.A., Chesebro, B. & Richman, D.D. Antimicrob. Agents Chemother. 1990 34, 436-441. Briefly cells were seeded in 24-well multiwells at 5x10⁴ cells per well and incubated overnight at 37°C in growth medium (DMEM10). Monolayers were infected with 100-200pfu of cell-free virus in 0.2ml of DMEM containing 5% fetal bovine serum plus antibiotics (DMEM5) and incubated for 1 hour at 37°C to allow virus adsorption. Following this time, 0.8ml of DMEM5 (with or without inhibitor) was added to each well and cultures were incubated at 37°C for 2-3 days. Monolayers were fixed with 10% formaldehyde solution in PBS and stained with 0.25% crystal violet in order to visualize virus plaques. Individual foci of multinucleated gian cells (plaques) were apparent using this staining procedure. ID₅₀ values were derived from plots of percent plaque reduction versus inhibitor concentration.

[4] = Cell toxicity, cell growth inhibition assay (MTT uptake); conditions: CCID-50: 50% inhibition of cell viability at 5 days; uninfected MT4 cells or vero cells (not stated which); read-out: TOX
Method: Cell toxicity was assessed in a cell growth inhibition assay on uninfected MT4 cells or on vero cells in a 96-well microtiter dish. Identical cell numbers of uninfected cells were exposed to different dilutions of drug and cell viability determined daily on replicate cultures using uptake of MTT. The concentration required for a 50% inhibition of cell viability at 5 days is termed CCID-50.

[5] = Human immunodeficiency virus 1, Lymphocyte, 96 h

`COCc1cn([C@H]2C[C@H](F)[C@@H](CO)O2)c(=O)[nH]c1=O` [2′,3′-Dideoxy-3′-fluoro-5-methoxymethyluridine] showed an IC50 ([1]; Human immunodeficiency virus 1, MT4, MT4 cells infected with HIV) of 8.4 µM, an IC50 ([1]; MT4 cells infected with HIV) of 6.4 µM and an IC50 [2, 5] of 1.89 µM. It also gave an IC50 [3] of 11.9 µM and a CC50 at 120 h [4] of over 500 µM.

For `CSCc1cn([C@H]2C[C@H](F)[C@@H](CO)O2)c(=O)[nH]c1=O` [2′,3′-Dideoxy-3′-fluoro-5-methylthiomethyluridine], the IC50 [3] was 4.2 µM and the CC50 at 120 h [4] was over 200 µM.

Compound `CCOCc1cn([C@H]2C[C@H](F)[C@@H](CO)O2)c(=O)[nH]c1=O` [2′,3′-Dideoxy-5-ethoxymethyl-3′-fluorouridine] has an IC50 [2, 5] of 1.52 µM, an IC50 [2] of 1.63 µM and an IC50 [3] of 6.3 µM. It also gave a CC50 at 120 h [4] of over 200 µM.
